Here are results for four compounds from patent US10221197B2, “Phosphatidylinositol 3-kinase inhibitors” (Gilead Sciences, Inc., priority 2014, dated 2019).

As a reminder, the IC50 is the concentration that inhibits the measured activity by half.

What all share (format): biochemical
Test [1] has as its target PI3Kδ (Homo sapiens (Human), UniProt O00329). Description: TR-FRET enzymatic assay of PI3K isoforms (PI3Kδ). Particulars: 2×Km ATP, 2 μM PIP2, incubated for 30 minutes at 25° C., read-out: δ IC50. The method, then:
(§1) The compounds of formula (I) were characterized for their enzymatic activity against the PI3K isoforms. Certain compounds of the present application, including certain compounds of formula (II) and (III) were also characterized for their enzymatic activity against PI3K isoforms. The activities were measured using a time-resolved fluorescence resonance energy transfer (TR-FRET) assay.
In general terms: TR-FRET usually uses a lanthanide donor and a delayed reading to cut background.

Test [2] has as its target PI3Kβ (Homo sapiens (Human), UniProt P42338). Description: TR-FRET enzymatic assay of PI3K isoforms (PI3Kβ). Conditions: TR-FRET, 2×Km ATP, 2 μM PIP2, incubated for 30 minutes at 25° C.; read-out: β IC50. Here is the method: as §1
Test [3] concerns the target PI3Kγ (Homo sapiens (Human), UniProt P48736). Description: TR-FRET enzymatic assay of PI3K isoforms (PI3Kγ). Particulars: TR-FRET, 2×Km ATP, 2 μM PIP2, PI3Kγ at 2 nM, incubated for 30 minutes at 25° C.; read-out: γ IC50. The method, then:
as §1

Sequence of PI3Kβ (P42338 whole entry, canonical isoform): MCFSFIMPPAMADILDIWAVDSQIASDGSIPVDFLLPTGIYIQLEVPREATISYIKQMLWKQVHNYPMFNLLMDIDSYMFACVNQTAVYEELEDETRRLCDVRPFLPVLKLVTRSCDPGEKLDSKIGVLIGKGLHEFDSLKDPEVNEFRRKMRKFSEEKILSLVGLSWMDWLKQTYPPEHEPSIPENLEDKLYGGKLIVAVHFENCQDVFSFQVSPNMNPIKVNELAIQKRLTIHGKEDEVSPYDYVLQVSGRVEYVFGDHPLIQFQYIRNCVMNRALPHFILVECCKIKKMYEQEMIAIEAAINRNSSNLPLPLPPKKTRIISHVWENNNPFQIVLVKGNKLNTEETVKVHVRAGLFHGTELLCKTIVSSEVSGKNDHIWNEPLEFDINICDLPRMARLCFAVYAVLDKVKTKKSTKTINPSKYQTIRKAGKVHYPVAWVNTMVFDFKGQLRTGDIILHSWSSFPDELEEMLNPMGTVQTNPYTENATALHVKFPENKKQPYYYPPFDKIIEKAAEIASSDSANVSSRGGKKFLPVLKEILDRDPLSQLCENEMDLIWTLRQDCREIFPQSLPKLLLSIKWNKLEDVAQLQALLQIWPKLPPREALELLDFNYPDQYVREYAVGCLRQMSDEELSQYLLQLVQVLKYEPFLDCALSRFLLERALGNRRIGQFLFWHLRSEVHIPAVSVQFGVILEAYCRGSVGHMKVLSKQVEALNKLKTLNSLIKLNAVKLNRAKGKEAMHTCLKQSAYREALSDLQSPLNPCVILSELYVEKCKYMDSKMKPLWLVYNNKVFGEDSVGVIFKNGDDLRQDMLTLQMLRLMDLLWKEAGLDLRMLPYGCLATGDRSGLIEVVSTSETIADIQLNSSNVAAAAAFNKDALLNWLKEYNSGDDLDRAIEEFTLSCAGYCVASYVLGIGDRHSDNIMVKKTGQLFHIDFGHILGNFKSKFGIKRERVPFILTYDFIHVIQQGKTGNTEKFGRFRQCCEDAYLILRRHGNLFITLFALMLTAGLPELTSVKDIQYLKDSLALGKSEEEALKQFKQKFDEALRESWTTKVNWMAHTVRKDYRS
Sequence of PI3Kβ (P27986 whole entry partner, canonical isoform): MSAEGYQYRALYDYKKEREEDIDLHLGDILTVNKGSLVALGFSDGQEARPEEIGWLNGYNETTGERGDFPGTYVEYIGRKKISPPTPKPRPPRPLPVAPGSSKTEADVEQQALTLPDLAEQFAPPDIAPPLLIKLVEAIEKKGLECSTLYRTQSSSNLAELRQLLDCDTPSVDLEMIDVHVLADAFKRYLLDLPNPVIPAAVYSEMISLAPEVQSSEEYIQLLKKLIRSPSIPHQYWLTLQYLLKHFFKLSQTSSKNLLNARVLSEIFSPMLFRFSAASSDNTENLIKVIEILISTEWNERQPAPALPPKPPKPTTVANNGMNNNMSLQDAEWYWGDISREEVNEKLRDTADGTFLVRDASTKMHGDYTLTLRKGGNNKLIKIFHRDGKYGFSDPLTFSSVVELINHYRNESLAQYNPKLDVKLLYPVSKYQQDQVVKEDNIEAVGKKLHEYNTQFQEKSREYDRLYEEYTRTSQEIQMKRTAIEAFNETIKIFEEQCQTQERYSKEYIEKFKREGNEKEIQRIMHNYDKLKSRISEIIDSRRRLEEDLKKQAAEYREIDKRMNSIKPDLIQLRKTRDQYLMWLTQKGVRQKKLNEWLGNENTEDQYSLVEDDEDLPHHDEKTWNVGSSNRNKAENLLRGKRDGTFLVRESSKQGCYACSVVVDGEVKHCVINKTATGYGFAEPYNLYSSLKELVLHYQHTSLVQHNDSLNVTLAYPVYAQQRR
Sequence of PI3Kγ (P48736 whole entry, canonical isoform): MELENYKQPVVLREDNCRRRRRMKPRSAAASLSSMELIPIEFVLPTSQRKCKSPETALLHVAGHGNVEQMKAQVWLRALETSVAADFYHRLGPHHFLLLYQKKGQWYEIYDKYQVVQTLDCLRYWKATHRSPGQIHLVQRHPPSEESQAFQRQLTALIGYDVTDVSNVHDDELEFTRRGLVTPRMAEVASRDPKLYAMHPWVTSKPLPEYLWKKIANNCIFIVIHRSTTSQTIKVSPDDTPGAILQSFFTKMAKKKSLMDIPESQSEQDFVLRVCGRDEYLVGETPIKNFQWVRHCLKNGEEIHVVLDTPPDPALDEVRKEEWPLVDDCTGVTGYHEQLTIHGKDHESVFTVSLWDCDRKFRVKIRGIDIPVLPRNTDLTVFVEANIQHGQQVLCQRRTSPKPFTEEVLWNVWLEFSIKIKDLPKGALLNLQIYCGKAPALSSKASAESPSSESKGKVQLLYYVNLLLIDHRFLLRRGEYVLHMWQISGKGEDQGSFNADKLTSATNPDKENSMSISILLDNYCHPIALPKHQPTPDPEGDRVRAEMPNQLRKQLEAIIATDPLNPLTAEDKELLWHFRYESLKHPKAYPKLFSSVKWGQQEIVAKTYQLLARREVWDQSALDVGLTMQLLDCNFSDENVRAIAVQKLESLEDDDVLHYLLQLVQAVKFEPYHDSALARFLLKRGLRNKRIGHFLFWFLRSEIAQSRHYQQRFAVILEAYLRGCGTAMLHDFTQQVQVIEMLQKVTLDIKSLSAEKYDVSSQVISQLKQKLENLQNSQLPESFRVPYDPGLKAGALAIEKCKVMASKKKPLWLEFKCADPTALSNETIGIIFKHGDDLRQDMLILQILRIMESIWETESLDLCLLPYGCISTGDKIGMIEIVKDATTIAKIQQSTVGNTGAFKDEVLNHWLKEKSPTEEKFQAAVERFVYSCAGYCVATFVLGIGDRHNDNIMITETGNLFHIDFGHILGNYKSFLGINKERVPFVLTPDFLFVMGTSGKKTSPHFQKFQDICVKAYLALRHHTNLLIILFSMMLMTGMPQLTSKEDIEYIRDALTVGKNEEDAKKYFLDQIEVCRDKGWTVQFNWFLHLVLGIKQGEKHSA
Sequence of PI3Kγ (Q8WYR1 whole entry partner, canonical isoform): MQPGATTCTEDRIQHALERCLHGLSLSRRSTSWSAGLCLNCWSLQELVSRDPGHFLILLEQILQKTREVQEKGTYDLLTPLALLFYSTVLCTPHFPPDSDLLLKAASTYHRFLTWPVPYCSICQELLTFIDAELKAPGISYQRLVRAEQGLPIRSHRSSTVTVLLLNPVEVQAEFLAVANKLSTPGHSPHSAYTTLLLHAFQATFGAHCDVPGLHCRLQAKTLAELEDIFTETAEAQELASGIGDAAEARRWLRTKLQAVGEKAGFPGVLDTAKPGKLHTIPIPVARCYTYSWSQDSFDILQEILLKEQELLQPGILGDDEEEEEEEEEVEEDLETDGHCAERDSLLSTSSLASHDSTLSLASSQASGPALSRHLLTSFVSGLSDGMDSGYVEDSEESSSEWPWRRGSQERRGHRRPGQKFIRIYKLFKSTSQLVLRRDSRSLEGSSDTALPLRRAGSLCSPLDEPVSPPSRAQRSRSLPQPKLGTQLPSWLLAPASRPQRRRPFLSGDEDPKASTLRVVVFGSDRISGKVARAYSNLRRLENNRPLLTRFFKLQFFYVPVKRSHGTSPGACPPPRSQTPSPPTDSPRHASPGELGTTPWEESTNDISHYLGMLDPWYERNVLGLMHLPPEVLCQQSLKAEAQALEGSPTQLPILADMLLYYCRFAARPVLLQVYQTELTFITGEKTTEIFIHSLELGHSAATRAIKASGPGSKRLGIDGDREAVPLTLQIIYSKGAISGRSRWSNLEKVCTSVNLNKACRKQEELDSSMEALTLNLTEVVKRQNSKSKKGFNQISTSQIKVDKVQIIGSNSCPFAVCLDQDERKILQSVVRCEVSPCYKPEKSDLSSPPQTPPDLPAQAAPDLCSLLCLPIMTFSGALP
Sequence of PI3Kδ (O00329 whole entry, canonical isoform): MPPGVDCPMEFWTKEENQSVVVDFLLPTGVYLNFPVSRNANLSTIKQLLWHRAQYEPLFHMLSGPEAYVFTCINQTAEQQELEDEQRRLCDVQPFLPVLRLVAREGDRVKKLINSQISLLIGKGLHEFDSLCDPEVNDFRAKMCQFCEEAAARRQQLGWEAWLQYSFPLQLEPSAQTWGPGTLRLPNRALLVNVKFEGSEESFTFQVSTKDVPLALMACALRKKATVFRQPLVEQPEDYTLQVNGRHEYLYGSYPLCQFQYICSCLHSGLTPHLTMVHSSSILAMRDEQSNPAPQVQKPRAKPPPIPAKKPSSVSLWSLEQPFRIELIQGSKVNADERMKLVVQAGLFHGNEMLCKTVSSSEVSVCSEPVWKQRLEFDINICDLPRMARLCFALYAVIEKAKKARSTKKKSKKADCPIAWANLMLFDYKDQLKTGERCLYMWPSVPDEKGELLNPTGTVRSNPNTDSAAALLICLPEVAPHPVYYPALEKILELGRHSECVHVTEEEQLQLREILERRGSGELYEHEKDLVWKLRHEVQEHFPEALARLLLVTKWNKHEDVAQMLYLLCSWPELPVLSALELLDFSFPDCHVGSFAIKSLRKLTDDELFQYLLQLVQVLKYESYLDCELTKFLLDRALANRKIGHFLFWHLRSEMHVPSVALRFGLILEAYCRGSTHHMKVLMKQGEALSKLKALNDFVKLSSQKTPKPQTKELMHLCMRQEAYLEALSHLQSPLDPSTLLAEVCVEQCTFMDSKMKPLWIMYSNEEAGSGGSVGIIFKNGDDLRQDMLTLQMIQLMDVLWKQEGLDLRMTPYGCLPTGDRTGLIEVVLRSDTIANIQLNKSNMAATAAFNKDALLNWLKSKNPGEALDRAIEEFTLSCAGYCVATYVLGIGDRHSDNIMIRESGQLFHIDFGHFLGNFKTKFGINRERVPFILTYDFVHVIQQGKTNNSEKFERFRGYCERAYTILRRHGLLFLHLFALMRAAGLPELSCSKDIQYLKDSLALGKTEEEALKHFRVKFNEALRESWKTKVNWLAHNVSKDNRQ
Sequence of PI3Kδ (P27986 whole entry partner, canonical isoform): as the sequence (P27986 whole entry partner, canonical isoform) above

In the case of `N#Cc1c(N)nc(N)nc1N[C@H](c1nc2cccc(Cl)c2c(=O)n1-c1cc(F)cc(C(N)=O)c1)C1CC1` [Compound 161, (S)-3-(5-chloro-2-(cyclopropyl((2,6-diamino-5-cyanopyrimidin-4-yl)amino)methyl)-4-oxoquinazolin-3(4H)-yl)-5-fluorobenzamide], the results for the IC50 in test [1], in test [2] and in test [3] were 1 nM, 2 nM and 70 nM, respectively.

Turning to `NC(=O)c1cc(F)cc(-n2c([C@@H](Nc3nc(N)nc(N)c3Cl)C3CC3)nc3cccc(Cl)c3c2=O)c1` [Compound 162, (S)-3-(5-chloro-2-(cyclopropyl((2,6-diamino-5-chloropyrimidin-4-yl)amino)methyl)-4-oxoquinazolin-3(4H)-yl)-5-fluorobenzamide], the IC50 amounted to 1 nM in test [1], 21 nM in test [2] and 2600 nM in test [3].

For `NC(=O)c1cncc(-n2c([C@@H](Nc3nc(N)nc(N)c3Cl)C3CC3)nc3cccc(Cl)c3c2=O)c1` [Compound 163, (S)-5-(5-chloro-2-(cyclopropyl((2,6-diamino-5-chloropyrimidin-4-yl)amino)methyl)-4-oxoquinazolin-3(4H)-yl)nicotinamide], the IC50 was found to be 2 nM in test [1], 11 nM in test [2] and 8200 nM in test [3].

On to `N#Cc1c(N)nc(N)nc1N[C@H](c1nc2cccc(Cl)c2c(=O)n1-c1cncc(C(N)=O)c1)C1CC1` [Compound 164, (S)-5-(5-chloro-2-(cyclopropyl((2,6-diamino-5-cyanopyrimidin-4-yl)amino)methyl)-4-oxoquinazolin-3(4H)-yl)nicotinamide], for which the IC50 is 1 nM in test [1], 2 nM in test [2] and 420 nM in test [3].
